Data set [1] has as its target Amyloid-beta precursor protein (Homo sapiens) (UniProt P05067). Kind of data set: Inhibition of self-induced aggregation of amyloid beta (1 to 42 residues) (unknown origin) at 25 uM incubated for 48 hrs by Thioflavin T fluorescence assay relative to control.
Data set [2] deals with T1, Amine oxidase [flavin-containing] B (Homo sapiens, UniProt P27338).
T1 sequence (P27338 whole entry): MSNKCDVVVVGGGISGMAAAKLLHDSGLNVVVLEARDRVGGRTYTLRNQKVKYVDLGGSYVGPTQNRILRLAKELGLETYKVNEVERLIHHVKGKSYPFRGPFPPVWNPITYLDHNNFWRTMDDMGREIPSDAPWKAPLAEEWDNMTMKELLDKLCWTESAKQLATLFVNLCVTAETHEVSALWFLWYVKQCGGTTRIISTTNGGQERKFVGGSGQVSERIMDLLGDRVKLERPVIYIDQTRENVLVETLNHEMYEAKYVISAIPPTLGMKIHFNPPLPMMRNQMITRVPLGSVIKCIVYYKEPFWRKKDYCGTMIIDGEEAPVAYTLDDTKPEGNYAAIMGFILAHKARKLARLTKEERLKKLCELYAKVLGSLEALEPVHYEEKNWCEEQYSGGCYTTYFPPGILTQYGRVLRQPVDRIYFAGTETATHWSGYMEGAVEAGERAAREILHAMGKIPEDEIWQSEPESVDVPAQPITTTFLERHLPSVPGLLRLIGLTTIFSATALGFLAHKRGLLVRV
Kind of data set: Inhibition of human MAO-B using p-tyramine as substrate preincubated for 15 mins followed by substrate addition measured after 20 mins by fluorescence-based Amplex Red MAO assay.

The species entered for another data set is Homo sapiens. Kind of data set: Selectivity index, ratio of IC50 for human MAO-A to IC50 for human MAO-B.
Data set [3] is described as follows: Antioxidant activity assessed as DPPH radical scavenging activity after 30 mins. The class given is functional.
Data set [4] addresses T2, Amine oxidase [flavin-containing] A (Homo sapiens, UniProt P21397).
T2 sequence (P21397 whole entry): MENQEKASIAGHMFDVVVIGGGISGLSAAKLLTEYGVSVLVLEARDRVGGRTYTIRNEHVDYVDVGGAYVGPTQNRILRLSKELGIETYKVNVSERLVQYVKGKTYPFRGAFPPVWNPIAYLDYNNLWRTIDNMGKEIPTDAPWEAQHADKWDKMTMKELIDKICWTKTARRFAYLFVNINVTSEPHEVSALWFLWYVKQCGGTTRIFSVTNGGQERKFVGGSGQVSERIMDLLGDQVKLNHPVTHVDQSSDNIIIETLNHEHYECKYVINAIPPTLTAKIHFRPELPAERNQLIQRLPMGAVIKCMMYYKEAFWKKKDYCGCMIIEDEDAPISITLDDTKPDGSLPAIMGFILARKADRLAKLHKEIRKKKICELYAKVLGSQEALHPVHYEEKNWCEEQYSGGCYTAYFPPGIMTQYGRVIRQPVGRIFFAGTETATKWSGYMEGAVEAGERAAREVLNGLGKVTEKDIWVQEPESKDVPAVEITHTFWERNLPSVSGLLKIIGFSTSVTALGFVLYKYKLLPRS
Kind of data set: Inhibition of human MAO-A at 200 uM using p-tyramine as substrate preincubated for 15 mins followed by substrate addition measured after 20 mins by fluorescence-based Amplex Red MAO assay.

For data set [5], the system named is PC-12. Description: Cytotoxicity against rat PC12 cells at 25 uM after 24 hrs by MTT assay. The class given is cell-based. The note with it: pc-12, 24 h. Background: Tetrazolium dyes change colour on reduction, which living cells bring about.
Data set [6] has as its target T2, Amine oxidase [flavin-containing] A. Description: Inhibition of human MAO-A using p-tyramine as substrate preincubated for 15 mins followed by substrate addition measured after 20 mins by fluorescence-based Amplex Red MAO assay.
Data set [7] can be described thus: Antioxidant activity assessed as ABTS radical scavenging activity at 25 uM after 6 mins. The class given is functional.
For data set [8], the system named is PC-12. Description: Neuroprotective activity against H2O2-induced cytotoxicity in rat PC12 cells assessed as increase in cell viability at 25 uM preincubated for 24 hrs followed by H2O2 addition and measured after 24 hrs by MTT assay. The format is functional, cell-based.
A further data set can be described thus: in vitro. Also noted: dose or concentration left out as unconfirmed. Conditions: PAMPA. (In general: In PAMPA a lipid-coated filter parts donor from acceptor wells.)

Calls of active or inactive are those of the source. The calls are words filed in the database; no cut-off is given here.

Chain of Amyloid-beta precursor protein (Homo sapiens) (P05067 whole entry, the tested form may be a part): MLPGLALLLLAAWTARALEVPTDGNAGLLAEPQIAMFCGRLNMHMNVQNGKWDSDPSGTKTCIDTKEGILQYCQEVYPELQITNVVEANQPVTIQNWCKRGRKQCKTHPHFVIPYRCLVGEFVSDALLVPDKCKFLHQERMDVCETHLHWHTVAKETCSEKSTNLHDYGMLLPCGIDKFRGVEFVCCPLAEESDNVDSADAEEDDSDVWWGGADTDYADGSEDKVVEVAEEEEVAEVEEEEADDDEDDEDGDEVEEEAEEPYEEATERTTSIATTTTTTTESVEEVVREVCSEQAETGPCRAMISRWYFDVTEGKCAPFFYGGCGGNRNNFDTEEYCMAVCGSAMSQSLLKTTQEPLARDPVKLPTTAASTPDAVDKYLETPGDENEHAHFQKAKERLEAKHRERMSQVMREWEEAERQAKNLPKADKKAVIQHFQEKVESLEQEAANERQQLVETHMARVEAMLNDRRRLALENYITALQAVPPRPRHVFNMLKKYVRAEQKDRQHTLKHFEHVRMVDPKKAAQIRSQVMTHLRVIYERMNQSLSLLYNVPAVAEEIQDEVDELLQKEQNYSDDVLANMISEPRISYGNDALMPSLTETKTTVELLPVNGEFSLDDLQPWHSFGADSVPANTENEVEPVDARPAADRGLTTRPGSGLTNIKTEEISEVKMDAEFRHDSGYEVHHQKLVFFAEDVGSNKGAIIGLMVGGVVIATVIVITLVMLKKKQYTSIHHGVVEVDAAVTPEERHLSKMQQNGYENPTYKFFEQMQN
Description for in vitro: Permeability of the compound at 100 mg/ml after 16 hrs by BBB-PAMPA method

A word on the inhibition: it is the relative decrease from the control value, in per cent. Usually IC50 stands for the concentration needed to halve the response being measured. For the compound `Oc1ccc(F)cc1/C=N/c1ccc(OCc2ccccc2)cc1`, the inhibition in [1] turned out to be 84.4%. The half-maximal inhibitory concentration (IC50) was 15.3 µM in data set [2] and above 200 µM in data set [3]. In addition, the Ratio IC50 in the data set filed under Homo sapiens was above 6.54. Also, in [4], the “inhibition (INH)” value is recorded as “Not Active”. Besides, the Activity result in the data set with PC-12 [5] was “Non-Toxic”.
In data set [1], `Oc1ccc(/C=N/c2ccc(OCc3ccccc3)cc2)c(O)c1` showed an inhibition of 59.8%. In addition, the IC50 in [2] is 6.78 µM; in [3], above 200 µM. Further, the Ratio IC50 in the data set filed under Homo sapiens was above 14.8. Also, in data set [4], the “inhibition (INH)” value was “Not Active”. Besides, the Activity result in the data set on PC-12 [5] is given as “Non-Toxic”.
With `Oc1ccc(Cl)cc1/C=N/c1ccc(OCc2ccccc2)cc1`, the inhibition in data set [1] amounted to 59.6%. The IC50 is 24.8 µM in [2] and above 200 µM in data set [3]. Further, the Ratio IC50 in the data set filed under Homo sapiens was above 4.03. In data set [4], the “inhibition (INH)” value was “Not Active”. Besides, the Activity entry in the data set on PC-12 [5] was “Non-Toxic”.
Compound `Oc1cccc(/C=N/c2ccc(OCc3ccccc3)cc2)c1O` displayed an inhibition in data set [1] of 72.5%. Besides, the IC50 in [6] worked out at 11.4 µM; in [2], 6.87 µM; in data set [3] it was 13.3 µM. Further, the Ratio IC50 in the data set listed under Homo sapiens was determined as 1.66. Besides, in [7], the Activity (umolequiv/umol) stood at 0.6. For the same compound, in the data set with PC-12 [5], the Activity entry is recorded as “Non-Toxic”. The outcome in the data set on PC-12 [8] was Active.
Take `COc1ccc(/C=N/c2ccc(OCc3ccccc3)cc2)c(O)c1`: the inhibition in data set [1] was 69.5%. Further, the IC50 is 23.6 µM in data set [2] and above 200 µM in data set [3]. For the same compound, the Ratio IC50 in the data set filed under Homo sapiens was above 4.24. The “inhibition (INH)” value in data set [4] is given as “Not Active”. Also, the Activity result in the data set with PC-12 [5] is listed as “Non-Toxic”.
For `Oc1ccc(O)c(/C=N/c2ccc(OCc3ccccc3)cc2)c1`, the inhibition in data set [1] is 49.2%. Also, the IC50 was 18.8 µM in data set [6], 1.23 µM in data set [2] and 21.3 µM in data set [3]. Moreover, the Ratio IC50 in the data set filed under Homo sapiens was determined as 15.3. Besides, the Activity (umolequiv/umol) in data set [7] is 0.97. In addition, in the data set on PC-12 [5], the Activity entry is reported as “Non-Toxic”. Moreover, the outcome in the data set with PC-12 [8] was Active.
As to `Cc1ccc(O)c(/C=N/c2ccc(OCc3ccccc3)cc2)c1`, in data set [1], the inhibition is 61.9%. Also, the IC50 in [2] was 24.6 µM; in data set [3], above 200 µM. Moreover, the Ratio IC50 in the data set filed under Homo sapiens was above 4.06. Also, the “inhibition (INH)” value in data set [4] is “Not Active”. For the same compound, in the data set with PC-12 [5], the Activity entry is “Non-Toxic”.
In data set [1], `Oc1ccc2ccccc2c1/C=N/c1ccc(OCc2ccccc2)cc1` gave an inhibition of 73.1%. For the same compound, the IC50 in data set [2] was 19.2 µM; in data set [3], above 200 µM. Also, the Ratio IC50 in the data set filed under Homo sapiens was above 5.22. Besides, in data set [4], the “inhibition (INH)” value was “Not Active”. Besides, the Activity result with PC-12 [5] is given as “Non-Toxic”.
The compound `Cc1cccc(/C=N/c2ccc(OCc3ccccc3)cc2)c1O` came in with an inhibition in data set [1] of 53.7%. Also, the figures for the IC50 in data set [2] and in data set [3] were 15.5 µM and above 200 µM, respectively. In addition, in the data set listed under Homo sapiens, the Ratio IC50 was above 6.47. The “inhibition (INH)” value in data set [4] is “Not Active”. Moreover, the Activity entry with PC-12 [5] is “Non-Toxic”.
In the case of `Oc1ccccc1/C=N/c1ccc(OCc2ccccc2)cc1`, the inhibition in data set [1] came out at 63.3%. Further, the figures for the IC50 in [2] and in data set [3] were 25.1 µM and above 200 µM, respectively. Also, in the data set filed under Homo sapiens, the Ratio IC50 is above 3.98. The “inhibition (INH)” value in data set [4] was “Not Active”. The Activity result in the data set with PC-12 [5] is recorded as “Non-Toxic”.
In [1], `COc1ccc(O)c(/C=N/c2ccc(OCc3ccccc3)cc2)c1` showed an inhibition of 56.6%. The figures for the IC50 in [2] and in data set [3] were 10.7 µM and above 200 µM, respectively. The Ratio IC50 in the data set filed under Homo sapiens is above 9.34. Moreover, in data set [4], the “inhibition (INH)” value was “Not Active”. The Activity result with PC-12 [5] is “Non-Toxic”.
In general, Papp refers to a coefficient for how fast a substance crosses the barrier. In turn, `C[C@]12CC[C@@H]3c4ccc(O)cc4CC[C@H]3[C@@H]1CC[C@@H]2O` [ESTRADIOL] registered a Papp at 16 h in the data set “in vitro” of 9.17 ×10⁻⁶ cm/s.
In data set [1], `Oc1ccc(Br)cc1/C=N/c1ccc(OCc2ccccc2)cc1` came in with an inhibition of 54.3%. Further, the IC50 was 31.7 µM in data set [2] and above 200 µM in data set [3]. Also, the Ratio IC50 in the data set listed under Homo sapiens is above 3.15. Also, the “inhibition (INH)” value in data set [4] is “Not Active”. Also, the Activity result in the data set on PC-12 [5] is “Non-Toxic”.
Consider `Oc1cc(O)c(/C=N/c2ccc(OCc3ccccc3)cc2)c(O)c1`, for which the inhibition in [1] is 88.5%. The IC50 in [2] was found to be 10.1 µM; in [3], 23.9 µM. For the same compound, the Ratio IC50 in the data set filed under Homo sapiens was above 9.86. Moreover, in data set [7], the Activity (umolequiv/umol) amounted to 0.69. For the same compound, the “inhibition (INH)” value in data set [4] is recorded as “Not Active”. Further, in the data set with PC-12 [5], the Activity entry was “Non-Toxic”. For the same compound, the result in the data set with PC-12 [8] was inactive.
In turn, `CCn1cc(C(=O)O)c(=O)c2cc(F)c(N3CCNC(C)C3)c(F)c21` (configuration not stated) [LOMEFLOXACIN] registered a Papp at 16 h in the data set “in vitro” of 1.59 ×10⁻⁶ cm/s.
In [1], `Cc1ccc(/C=N/c2ccc(OCc3ccccc3)cc2)c(O)c1` displayed an inhibition of 60.1%. In addition, the IC50 in data set [2] was 24.4 µM; in [3] it was above 200 µM. Also, the Ratio IC50 in the data set filed under Homo sapiens was above 4.09. Also, in [4], the “inhibition (INH)” value is given as “Not Active”. In the data set with PC-12 [5], the Activity result is listed as “Non-Toxic”.
As for `Oc1c(Br)cc(Br)cc1/C=N/c1ccc(OCc2ccccc2)cc1`, the inhibition in data set [1] amounted to 66.7%. Besides, the IC50 in data set [2] was 10.8 µM; in data set [3], above 200 µM. For the same compound, the Ratio IC50 in the data set listed under Homo sapiens was above 9.23. Also, the “inhibition (INH)” value in data set [4] was “Not Active”. Further, the Activity entry in the data set on PC-12 [5] is on record as “Non-Toxic”.
`Oc1ccc(/C=C/c2cc(O)cc(O)c2)cc1` [RESVERATROL]: in data set [3], the IC50 amounted to 82.7 µM. Besides, the Activity (umolequiv/umol) in [7] came to 1.57.
The compound `O=[N+]([O-])c1ccc(O)c(/C=N/c2ccc(OCc3ccccc3)cc2)c1` registered an inhibition in data set [1] of 70.2%. The figures for the concentration for half-maximal inhibition (IC50) in [2] and in data set [3] were 60.9 µM and above 200 µM, respectively. Moreover, in the data set listed under Homo sapiens, the Ratio IC50 is above 1.64. The “inhibition (INH)” value in data set [4] is reported as “Not Active”. In addition, the Activity result in the data set with PC-12 [5] is given as “Non-Toxic”.
`COc1cccc(/C=N/c2ccc(OCc3ccccc3)cc2)c1O` yielded an inhibition in data set [1] of 53.4%. Also, the IC50 in [2] is 6.5 µM; in data set [3] it was above 200 µM. In the data set filed under Homo sapiens, the Ratio IC50 was above 15.4. The “inhibition (INH)” value in data set [4] is given as “Not Active”. The Activity result in the data set on PC-12 [5] is given as “Non-Toxic”.

(Values after ChEMBL document CHEMBL4177594, “Design, synthesis, and evaluation of salicyladimine derivatives as multitarget-directed ligands against Alzheimer's disease” (Bioorg Med Chem, 2017).)
